Results as given in a melting point compilation (Tetko et al.; mined from patent text by program, amines drawn as free bases though some values may be those of a salt).

| SMILES | melting point |
| --- | --- |
| CNc1nnc(C(C)(C)CCl)s1 | 91 to 93 °C |
| N#Cc1ccc(-c2ccc(Br)cc2)cc1 | 147 to 148 °C |
| COc1cc(C=O)ccc1OCc1nc(-c2cccc(C#N)c2)oc1C | 166 to 167 °C |
| O=C1Nc2cccc(-c3cccc(NC(=O)c4ccc(F)cc4)c3)c2/C1=C/c1ccc[nH]1 | 130 to 131 °C |
| COc1ccc2c(c1)C(Cl)c1ccccc1CO2 (stereo not drawn) | 133 to 134 °C |
| COc1cc(NC(=S)NC2CCCCC2)ccc1NNC=O | 131 to 133 °C |
| CCCCCCOc1ccc(NC(=O)c2cn(-c3ccc(F)cc3)nc2C)cc1C#N | 160 to 161 °C |
| CCOC(=O)N1CC[C@@H](N)[C@H](O)C1 (relative stereo) | 76.9 °C |
| COc1ccc2c(c1)OCCC(C(=O)N1CCN(C(=O)c3cc(OC)c(OC)c(OC)c3)CC1)=C2 | 133 to 135 °C |
| O=C(NCN1CCN(c2ccccn2)CC1)c1ccccc1 | 125 to 127 °C |
| COc1ccc2[nH]c3cc(-c4ccccc4C#N)c4c(c3c2c1)C(=O)NC4=O | 348 to 350 °C |
| CN(C(=O)Nc1nc(OCC(F)(F)F)cc(OCC(F)(F)F)c1F)c1ccc(Br)cc1 | 89 to 90 °C |
| CN[C@H]1CCN(c2c(-c3csc(C)n3)c(C)c(C#N)c3nc(C(=O)N(C)C)oc23)C1 | 138 to 140 °C |
| CCCN1CCc2[nH]c3ccc4scc(-c5ccccc5)c4c3c2C1 | 187 to 188 °C |
| COc1ccc2c(c1)CCC1C2CCC2(C)C(NCCCCCCCCCCN)CCC12 (stereo not drawn) | 55.5 to 57.5 °C |
| Fc1cccc(COc2ccc(Nc3ncnc4cc(C#Cc5ccccn5)sc34)cc2Cl)c1 | 242 °C |
| COc1ccc(N2C(=O)N(c3cccc(C#N)c3)c3nc(Nc4ccccc4)ncc3C2C)cc1 (stereo not drawn) | 224 to 228 °C |
| NC(=O)c1cn(CCOC(=O)Oc2ccccc2)nc1[N+](=O)[O-] | 108 to 110 °C |
| O=S(=O)(Nc1cc(Cl)ccc1Cl)c1cc(S(=O)(=O)Nc2cc(Cl)ccc2Cl)c2cc(O)ccc2c1 | 214 to 216 °C |
| CC(=O)Nc1ccc(C=C2C(=S)c3cc(C)ccc3OC2c2ccccc2)cc1 (stereo not drawn) | 197 to 198 °C |
| CCOC(=O)C(=Cc1cc(C(C)(C)C)c(O)c(C(C)(C)C)c1)c1cccnc1 | 120 °C |
| CN(C(=O)CCS(C)=O)c1cnc(-c2cncc(F)c2)s1 (stereo not drawn) | 152 to 154 °C |
| CCON1C(=O)c2ccccc2C1=O | 95 to 97 °C |

| SMILES | melting point |
| --- | --- |
| Cc1nc(C)n2c1CN=C(c1ccccc1Cl)c1cc(Cl)ccc1-2 | 175 to 177 °C |
| COc1ccc(Cn2c(C(=O)O)c(-c3ccc4c(c3)OCO4)c3cc(OCC(=O)O)ccc32)c(OCC(=O)O)c1 | 203 to 205 °C |
| CCC(O)(CC(=O)OC(C)(C)C)c1cc2n(c(=O)c1COC(C)=O)Cc1cc3ccccc3nc1-2 (stereo not drawn) | 195 to 196 °C |
| CCCCCCCCCCCCCCCCCNC(=O)OC[C@@H]1CO[C@@H](COC(=O)NCc2ccccn2)C1 (relative stereo) | 52.7 to 54.8 °C |
| CCOc1ccc(C2SC(=N)NC2=N)cc1OCC (stereo not drawn) | 185 to 190 °C |
| CNC(=S)NCCCSc1ncco1 | 43 to 45 °C |
| CC(C)CCNCC(O)C(CC(C)C)NC(=O)C(Cc1c[nH]cn1)NC(=O)C(CC(=O)NCCc1ccccc1)Cc1cccc2ccccc12 (mixture of isomers) | 92 to 97 °C |
| COc1cccc2c(Cl)c(C)c(C)nc12 | 130 °C |
| CCOc1ccc(S(=O)(=O)N2CCNCC2)cc1-c1nc2c(C)cccc2c(=O)[nH]1 | 163 to 165 °C |
| CCNS(=O)(=O)c1cccc(NC(=O)c2cnn3c(C(F)(F)F)cc(-c4ccc(C(F)(F)F)c(OCC)c4)nc23)c1 | 226 °C |
| CCCOc1ccc(-c2csc(-c3ccccc3)c2CC(=O)N=C(N)N)cc1 | 131 to 132 °C |
| Cc1cc(C(=O)OC(C)(C)C)cc(C(=O)OC(C)(C)C)c1 | 86.5 to 87.5 °C |
| COc1cc2nc(N3CCN(c4nccs4)CC3)nc(N)c2cc1OC | 220 to 221 °C |
| COc1ccc(-n2c(-c3ccc(S(N)(=O)=O)cc3)cc(C)c2Cl)cc1 | 155 to 156 °C |
| CC(=O)OCC1OC(n2c(F)nc3c(N)ncnc32)C(OC(C)=O)C1OC(C)=O (stereo not drawn) | 98 to 101 °C |
| CC/C(=C\Cn1oc(=O)[nH]c1=O)c1cccc(OCc2nc(-c3ccc(C(F)(F)F)cc3)oc2C)c1 | 66 to 67 °C |
| CC(F)(F)c1cccc(C[C@@H](C(=O)O)[C@@H](O)c2ccc(F)cc2)c1 (racemic) | 132 to 133 °C |
| CCOC(=O)c1ccc2cc(-c3ccc(OC)cc3)ccn2c1=O | 205 to 209 °C |
| CCOc1ccc(Nc2nc3nc[nH]c3c(=O)[nH]2)cn1 | > 350 °C |
| COc1cc2c(cc1C(F)(F)F)N(C(=O)Nc1ccc(Sc3cccnc3)nc1)CC2 | 208 to 210 °C |
| COC(=O)[C@H](Cc1ccccc1)NC(=S)Cc1ccc(C)cc1 | 84 to 86 °C |
| Cc1ccccc1-c1nc(N)ncc1-c1ccc(=O)[nH]n1 | 313 °C |
| Cc1cc(COc2ccc(S(=O)(=O)NC[C@@H](C(=O)NO)N3CCN(Cc4ccc(C(F)(F)F)cc4)CC3)cc2)c2ccccc2n1 | 148 °C |

| SMILES | melting point |
| --- | --- |
| CC(C)CC=Cc1c(C(C)C)nc(C(C)C)c(CO)c1-c1ccc(F)cc1 | 48 to 50 °C |
| Cc1cc2c(cc1C)-n1ccc(=O)nc1CC(c1ccc(-n3c(C)nc4cnccc43)cc1)=N2 | 192 to 194 °C |
| CC1(C)Oc2ccccc2-n2cccc21 | 38 °C |
| COc1cc(Nc2nccc(-c3ccc(CN)cc3)n2)cc(OC)c1OC | 143 to 144 °C |
| CC(C)(C)OC(=O)N1CCC(CNc2ccccn2)CC1 | 126 to 130 °C |
| COC(=O)c1ccc(Cl)c(C)c1N | 72 to 74 °C |
| O=C(CBr)NCCSC(c1ccccc1)(c1ccccc1)c1ccccc1 | 130 to 135 °C |
| COc1cc(C)c(C(=O)c2c(OC)ncc(Br)c2Cl)c(OC)c1OC | 84 to 87 °C |
| CCCc1ccc(S(=O)(=O)NCC2CCN(S(=O)(=O)c3ccc(CCC)cc3)CC2)cc1 | 158 to 159 °C |
| COC(=O)c1ccc(CCCO)c(C23CC4CC(CC(C4)C2)C3)c1 | 77 °C |
| CC(C)(C)[Si](C)(C)OCCn1nc(CO)cc1CO | 82 to 83 °C |
| COC(=O)c1cc(S)cc(S)c1 | 61 to 62 °C |
| Cc1nc2ccccc2c(=O)o1 | 79 to 81 °C |
| O=C(OCC1(COC(=O)c2ccccc2)c2ccccc2-c2ccccc21)c1ccccc1 | 144 to 146 °C |
| Cc1cc(CCCCCCO)cc(C(C)(C)C)c1O | 45 °C |
| CSc1nc(C)ccc1NC(=O)CCCCCSc1nc2ccccc2o1 | 140 to 141 °C |
| Cc1nnsc1C(=O)Nc1ccc(-n2nc(C3CC3)cc2C2CC2)c(F)c1 | 148 to 152 °C |
| CCN(CC)c1ccc(NC(=O)c2ccc(-c3[nH]nc4c3C(=O)c3c(NC(=O)NN5CCOCC5)cccc3-4)s2)cc1 | 198 to 199 °C |
| CC(C)(C)OC(=O)NCC(CCn1ccc(=O)[nH]c1=O)COC(c1ccccc1)(c1ccccc1)c1ccccc1 (stereo not drawn) | 86 to 88 °C |
| CN(C)S(=O)(=O)Oc1ccc2c(c1)CCC1C2CCC2(C)C(O)C(O)CC12 (stereo not drawn) | 180 to 181 °C |
| CCOC(=O)C1=NN(C(=O)c2ccccc2)C(C(=O)OCC)=NN1C(=O)c1ccccc1 | 134 °C |
| O=c1nc(N2CCOCC2)ccn1C1OC(CO)C(O)C1O (stereo not drawn) | 106 to 108 °C |
